“Also recorded” adds a separate entry of the source. Marks after values point to notes of the source that are not given here.
Tests used:
[1] = target: human G2A (Homo sapiens, UniProt Q9UNW8); conditions: compared with T-10418; 15 min after addition
Target sequence in this assay (P32121 whole entry partner, one chain of several): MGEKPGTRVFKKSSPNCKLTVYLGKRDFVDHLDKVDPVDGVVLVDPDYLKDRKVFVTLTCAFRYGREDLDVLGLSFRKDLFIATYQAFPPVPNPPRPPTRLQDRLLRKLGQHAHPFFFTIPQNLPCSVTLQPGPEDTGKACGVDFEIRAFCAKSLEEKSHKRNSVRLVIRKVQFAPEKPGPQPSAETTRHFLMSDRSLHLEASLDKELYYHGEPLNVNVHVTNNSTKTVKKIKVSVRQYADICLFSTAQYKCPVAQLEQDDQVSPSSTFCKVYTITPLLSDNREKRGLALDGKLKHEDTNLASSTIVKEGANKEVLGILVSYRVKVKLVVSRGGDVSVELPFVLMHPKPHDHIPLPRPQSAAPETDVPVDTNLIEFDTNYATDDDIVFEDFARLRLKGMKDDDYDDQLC

[2] = tested on: CHO-K1 cells overexpressing only GNA11 but not G2A; conditions: control cells without G2A; ONC compounds at ≥ 30 μM
[3] = tested on: Molm-13 cells; assay: IP-One assay in AML cells; format: cell-based; conditions: 90 minutes stimulation
[4] = tested on: ML-2 cells; assay: IP-One assay in AML cells; format: cell-based; conditions: 90 minutes stimulation
[5] = tested on: capsaicin-induced TRPV1 responses in mouse primary sensory neurons; assay: Calcium-imaging-based TRPV1 sensitization assay; format: cell-based
[6] = Pharmacokinetics in male C57Bl/6N mice
[7] = Aqueous solubility; conditions: PBS with 1% DMSO, pH 7.4, aqueous solubility, PBS buffer
[8] = target: GPR1 (Homo sapiens, UniProt P46091); format: cell-based; conditions: 60 μM, no endogenous ligand applied
Chain of GPR1 (P46091 whole entry): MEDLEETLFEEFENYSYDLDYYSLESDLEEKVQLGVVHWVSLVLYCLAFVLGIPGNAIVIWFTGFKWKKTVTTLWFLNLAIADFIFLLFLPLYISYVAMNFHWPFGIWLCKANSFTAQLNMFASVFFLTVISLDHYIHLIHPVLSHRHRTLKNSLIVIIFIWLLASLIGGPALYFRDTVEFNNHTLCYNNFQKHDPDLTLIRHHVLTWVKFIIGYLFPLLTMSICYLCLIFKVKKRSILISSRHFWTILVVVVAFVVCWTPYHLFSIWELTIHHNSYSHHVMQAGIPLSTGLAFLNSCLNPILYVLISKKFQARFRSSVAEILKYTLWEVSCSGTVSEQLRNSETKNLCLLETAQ
Chain of GPR1 (P32121 whole entry partner): as the sequence (P32121 whole entry partner, one chain of several) above

[9] = target: T1, human G2A (Homo sapiens, UniProt Q9UNW8); conditions: ratio of EC50 values
T1 sequence (Q9UNW8 1-380): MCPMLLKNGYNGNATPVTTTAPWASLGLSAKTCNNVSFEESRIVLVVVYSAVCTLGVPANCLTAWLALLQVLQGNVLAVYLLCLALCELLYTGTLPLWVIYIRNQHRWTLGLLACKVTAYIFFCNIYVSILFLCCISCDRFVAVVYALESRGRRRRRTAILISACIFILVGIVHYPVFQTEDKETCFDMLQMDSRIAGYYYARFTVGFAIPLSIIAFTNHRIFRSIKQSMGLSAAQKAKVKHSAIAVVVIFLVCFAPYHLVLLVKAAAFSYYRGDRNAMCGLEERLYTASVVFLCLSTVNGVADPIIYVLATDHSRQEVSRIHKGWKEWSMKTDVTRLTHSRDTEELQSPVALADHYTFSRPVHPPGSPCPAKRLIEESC

[10] = Metabolic stability in rat liver microsomes; conditions: Sprague–Dawley rat liver microsomes
[11] = tested on: Molm-13; assay: Apoptosis assay AnnexinV/7-AAD; format: cell-based; conditions: 30 μM, 24 h
[12] = tested on: Molm-13; assay: Cell viability; format: cell-based; conditions: 30 μM, 72 h
[13] = tested on: ML-2; assay: Apoptosis assay AnnexinV/7-AAD; format: cell-based; conditions: 30 μM, 24 h
[14] = tested on: ML-2; assay: Cell viability; format: cell-based; conditions: 30 μM, 72 h
[15] = tested on: G2A; conditions: weak antagonist of G2A; cited from earlier work

CCCCC/C=C\C=C\[C@H](O)CCCCCCCC(=O)O [9(R)-HODE]
βarr2 recruitment response [1]: did not result in any observable NanoLuc complementation

CCCCC/C=C\C=C\C(O)CCCCCCCC(=O)O (centres unmarked) [9-HODE]
increase in IP-1 not mediated by the receptor [2]: not been observed | βarr2 recruitment response [1]: unable to stimulate the same degree of β-arrestin recruitment | activation of the Gq pathway (IP-1) [3]: could not detect any activation of the Gq pathway | activation of the Gq pathway (IP-1) [4]: could not detect any activation of the Gq pathway

O=C(NC(Cc1ccccc1)C(=O)O)c1cccc(OCc2cccnc2)c1 (centres unmarked) [Compound 1]
sensitization of capsaicin-induced TRPV1 responses ([5]; 1 μM compound, 2 min, capsaicin 100 nM 30 s): potently sensitize for capsaicin-induced TRPV1 responses; also recorded: comparable to that observed with 200 nM (±)9-HODE

O=C(N[C@H](Cc1ccccc1)C(=O)O)c1cccc(OCc2cccnc2)c1 [Compound 3, (R)-3-Phenyl-2-(3-(pyridin-3-ylmethoxy)benzamido)propanoic Acid]
CL ([6]; 10 mg/kg sc): 140.8 mL/min/kg | behavior and clinical signs after dosing ([6]; iv or sc in PBS): no clinical signs observed | activation of the Gq pathway (IP-1) [3]: could not detect any activation of the Gq pathway | solubility [7]: > 3000 µM | partial agonism, share of maximal βarr2 recruitment observed with C9 [8]: approximately 50% | times more active than the (S) distomer 2 [9]: more than 30 times | activation of the Gq pathway (IP-1) [4]: could not detect any activation of the Gq pathway | rat liver microsomes (remaining after 60 min) [10]: 98% ^c

COc1ccc(-c2cc(C(=O)N[C@@H](Cc3ccccc3)C(=O)NC3CCCCC3)ccc2O)cc1 [Compound 56, (S)-N-(1-(Cyclohexylamino)-1-oxo-3-phenylpropan-2-yl)-6-hydroxy-4′-methoxy-[1,1′-biphenyl]-3-carboxamide]
effect on TRPV1 sensitization by T-10418 (100 nM) and 9-HODE (400 nM) ([5]; cotreatment with 10 μM antagonist): completely abolished

Cc1ccccc1CN1C(=O)C2=C(CCN(Cc3ccccc3)C2)N2CCN=C12 [ONC201]
induction of apoptosis [11]: induction of apoptosis could be confirmed | viable cells [12]: strong reduction in viable | induction of apoptosis [13]: induction of apoptosis could be confirmed | viable cells [14]: strong reduction in viable

O=C1C2=C(CCN(Cc3ccccc3)C2)N2CCN=C2N1Cc1ccc(C(F)(F)F)cc1 [ONC212]
increase in IP-1 not mediated by the receptor [2]: substantial increase in IP-1 | activation of the Gq pathway (IP-1) [3]: could not detect any activation of the Gq pathway | activation of the Gq pathway (IP-1) [4]: could not detect any activation of the Gq pathway

lysophosphatidylcholine [LPC]
IC50 [15]: > 10 µM
